From patent USRE48461E1, “Modulation of androgen receptor expression” (Ionis Pharmaceuticals, Inc., priority 2012, dated 2021)

Tested on: prostate-specific antigen (PSA) mRNA
Assay: PSA mRNA levels in LMR20 cells
Format: cell-based, human
Conditions: with or without DHT/R1881
Description: LMR20 cells were plated at 1,500 cells per well in phenol red-free medium with CSS. […] Results are presented in Tables 43-45 as mRNA levels expressed as a percentage of the baseline values. mRNA levels may be lowered or increased after treatment.

For “GTTGATTTAATGGTTG (all phosphorothioate, sugars by position not given here; further chemistry not fully specified) [ISIS 549458]”, the “PSA mRNA levels in LMR20 cells” value was “reduced PSA levels and TMPRSS2 more extensively than the LNA gapmer ISIS 554221 or MDV3100”.
